Read-outs that look alike come from different tables or passages of the source.
What was measured:
[1] = test system: Neotropical Brown Stink Bug (Euschistus heros, EUSCHE); test: whole plant or invertebrate; type: in vivo
Method: X=No. of live nymphs on solvent check and Y=No. of live nymphs on treated bean segments. In Table B4 the “Expected % Control” was calculated using the method described in Colby S. R., Weeds, 1967, 15, 20-22. Bioassay 5: Neotropical Brown Stink Bug (Euschistus heros, EUSCHE) (“BSB”).
Stock solutions were prepared with Formula One as well as for each of the active ingredients individually. Test solutions were prepared from the stock solutions. Test solutions were prepared containing Formula One, the individual active ingredients, and mixtures of Formula One with each of the active ingredients. The test solution for Formula One was prepared by adding 500 μL of the stock solution to a 25 mL glass vial, then adding 500 μL of acetone, followed by the addition of 9 mL water with 0.025% Tween®) 20 to create a 0.04% (w/v) solution. The individual active ingredients were prepared by adding 500 μL of stock solution to a 25 mL glass vial, then adding 500 μL of acetone, followed by the addition of 9 mL water with 0.025% Tween®) 20 to create a 0.005% (w/v) solution. The test solutions containing mixtures of Formula One and the individual active ingredients were prepared by adding 500 μL of the active ingredient stock solution to a 25 mL glass vial, followed by 500 μL of the Formula One stock solution, then by the addition of 9 mL water with 0.025% Tween®) 20 to create a test solution containing 0.04% (w/v) Formula One and 0.005% (w/v) of the active ingredient. Each test solution was serially diluted to create desired doses of test solutions (0.01% (w/v), 0.0025% (w/v), 0.000625% (w/v), 0.000156% (w/v), and 0.000039% (w/v)). In test solutions containing mixtures of Formula One and the active ingredients, the active ingredients were diluted as described above, but the Concentration of Formula One was held constant (0.04% (w/v)).
The test solutions that were tested against BSB were similar to those described above for WTPB. Fresh green beans were cut into segments approximately 1.5 inches long. Four bean segments were added to each test solution and soaked for approximately 15 minutes. After soaking, a single bean fragment was removed and placed into a single well of a 32-well rearing tray (Frontier Agricultural Sciences™), on top of a round filter paper disc. A reference treatment (solvent check) was treated with the diluent only. Each treatment was replicated four times and the test treatments were held at approximately 26° C. and ambient relative humidity (RH) prior to grading. Bean segments were allowed to air dry for ˜30 minutes. Three BSB nymphs were added to and contained in each well with a clear perforated adhesive lid. The total number of living BSB nymphs was recorded 3 days after application. Scoring was based off the total number of living nymphs out of all four replicates. Percent control was measured using Abbott's correction formula (W. S. Abbott, J. Econ. Entomol. 18 (1925), pp. 265-267) as follows:
where X=No. of live nymphs on solvent check and Y=No. of live nymphs on treated bean segments. In Table B5 the “Expected % Control” was calculated using the method described in Colby S. R., Weeds, 1967, 15, 20-22. Bioassay 6: Beet Armyworm (Spodoptera exigua, LAPHEG) (BAW), and Diamondback Moth (Plutella xylostella, PLUTMA) (DBM).

[2] = test system: Western Flower Thrips (Frankliniella occidentalis, FRANOC); test: Bioassay 3: Western Flower Thrips, cotton leaf disc dip, live WFT counted 3 days after treatment; type: in vivo; conditions: for pest or weed control at 7.8e-05 % strength: read-out: Average % Control AI
Outline: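 Cotton leaf discs were dipped in acetone/water solutions with 0.025% Tween 20, at 0.005% to 0.0000195% (w/v) for single actives; mixtures held Formula One constant at 0.04% (w/v). Discs were air dried, infested with 5 nymphs aged 9-10 days, and held at approximately 26° C. Live thrips were counted at 3 days, with Abbott-corrected control against solvent checks.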

[3] = Euschistus heros, 72 h, AI alone 0.000156 % w/v, read-out: Average % Control AI
[4] = Frankliniella occidentalis, foliar, 72 h, AI alone 0.0003125 % w/v
[5] = Euschistus heros, 72 h, AI alone 0.000625 % w/v

With Cc1c(COC(=O)[C@@H]2[C@H](/C=C(\Cl)C(F)(F)F)C2(C)C)cccc1-c1ccccc1 (racemic) [Bifenthrin] the pest or weed control at 0.000156 % strength [1, 3] was 30%.

CC1(C)[C@H](C(=O)O[C@H](C#N)c2cccc(Oc3ccccc3)c2)[C@@H]1/C=C(\Cl)C(F)(F)F (racemic) [Lambda Cyhalothrin] was tested, and the pest or weed control at 0.0003125 % strength [2, 4] was 7% and the pest or weed control at 0.000625 % strength [1, 5] was 8%.

With COP(=O)(NC(C)=O)SC (stereo not drawn) [Acephate] the pest or weed control at 7.8e-05 % strength ([2]; Frankliniella occidentalis, foliar, 72 h) was 5% and the pest or weed control at 0.0025 % strength ([1]; Euschistus heros, 72 h, read-out: Average % Control AI) was 0%.

C/C(=N\C#N)N(C)Cc1ccc(Cl)nc1 [Acetamiprid] gave a pest or weed control at 0.0003125 % strength [2, 4] of 13%.

Work on CC[S+]([O-])c1c(C#N)nn(-c2c(Cl)cc(C(F)(F)F)cc2Cl)c1N (stereo not drawn) [Ethiprole] yielded a pest or weed control at 0.005 % strength ([2]; Frankliniella occidentalis, foliar, 72 h, AI alone 0.005 % w/v) of 0% and a pest or weed control at 3.91e-05 % strength ([1]; Euschistus heros, 72 h, AI alone 0.0000391 % w/v) of 0%.

CON=CNC(=O)c1ccc(C2=NOC(c3cc(Cl)cc(Cl)c3)(C(F)(F)F)C2)cc1C (stereo not drawn) [Fluxametamide] was tested, and the “Average % Control AI” value ([2]; AI alone 0.0003125 % w/v) was 67% and the “Average % Control AI” value ([1]; AI alone 0.000625 % w/v) was 17%.

With CCN(C(=O)CCS(C)(=O)=O)c1sc(-c2cccnc2)nc1Cl [Formula F1, N-(4-chloro-2-(pyridin-3-yl)thiazol-5-yl)-N-ethyl-3-(methylsulfonyl)propanamide] the “Average % Control F1” value ([1]; F1 alone 0.04 % w/v) was 0%.

For O=[N+]([O-])NC1=NCCN1Cc1ccc(Cl)nc1 [Imidacloprid], the pest or weed control at 0.0003125 % strength [2, 4] was 0% and the pest or weed control at 0.000625 % strength [1, 5] was 17%.

Work on CN1COCN(Cc2cnc(Cl)s2)/C1=N\[N+](=O)[O-] [Thiamethoxam] yielded a pest or weed control at 7.8e-05 % strength ([2]; Frankliniella occidentalis, foliar, 72 h, AI alone 0.000078 % w/v) of 7% and a pest or weed control at 0.000156 % strength [1, 3] of 17%.

Abamectin was tested, and the “Average % Control AI” value ([1]; AI alone 0.000625 % w/v) was 17%.

For Emamectin Benzoate, the “Average % Control AI” value ([2]; AI alone 0.005 % w/v) was 38% and the “Average % Control AI” value ([1]; AI alone 0.000156 % w/v) was 24%.

— US20250338846A1, “COMPOSITIONS HAVING PESTICIDAL UTILITY AND PROCESSES RELATED THERETO” (CORTEVA AGRISCIENCE, LLC, priority 2022, published 2025)
